{
  "source": "patent US20130029928A1",
  "about": "(priority 2010, published 2013)",
  "key": {"PC3": {"system": "PC3", "experiment": "ATP depletion cytotoxicity assay 48 hr", "assay_type": "cell-based, human", "method": "(§1) Assay replicates were independent in time and up to 4 replicates were performed per cell line.\n(§2) Cells were plated at the optimal plating density for that cell line in 96-well plates and allowed to attach overnight. The next day, the medium was removed and replaced with fresh medium containing the dose ranges of test items. […] There were 3 replicates for each test item concentration.\n(§3) Following exposure to Test Items, the CellTitre-Glo Luminescent Cell Viability Assay to measure ATP content was performed according to the manufacturer's detailed instructions (Promega Corporation, Technical Bulletin No. 288, and Cell notes, Issue 10, 2004).\n(§4) Cells were plated at the optimal plating density for that cell line in 96-well plates and allowed to attach overnight. The next day, cells were pre-treated with the inhibitors UO126 or LY294002 (see Tables 18 & 20) for 2 hrs, the medium was removed and replaced with fresh medium containing the appropriate dose of the test item. […] Cells were exposed to these compounds in Roswell Park Memorial Institute (RPMI) medium containing 10% Foetal Calf Serum (FCS) and 2 mM Glutamine at 37° C. and 5% CO2 for 48 hours. There were 3 replicates for each test item concentration.\n(§5) Following exposure to Test Items, the CellTitre-Glo Luminescent Cell Viability Assay to measure ATP content will be performed according to the manufacturer's detailed instructions (Promega Corporation, Technical Bulletin No. 288, and Cell notes, Issue 10, 2004)."}, "XBP1 mRNA": {"system": "XBP1 mRNA", "experiment": "RT-PCR analysis of XBP1 mRNA splicing in Panc-1 and HepG2 cells", "assay_type": "cell-based, human", "conditions": "Panc-1 500-740 μM, HepG2 300 μM; 1-4 days", "protocol": "XBP1-u: unspliced form of XBPI; XBPI-s: spliced form of XBP1.\n1. Control; 2. 500 μM/1 day; 3. 500 μM/2 days; […]; 5. 500 μM/4 days; […]; 7. 740 μM/2 days.\nControl/1 day; 2. Control/2 days; 3. Control/4 days; 4. Tunicamycin for 24 h; 5. Tunicamycin for 6 h; 6. 300 μM/1 day; 7. 300 μM/2 days; 8. 300 μM/3 days."}, "HPAFII": {"system": "HPAFII", "experiment": "ATP depletion cytotoxicity assay 48 hr", "assay_type": "cell-based, human", "method": "as §3\nCells were plated at the optimal plating density for that cell line in 96-well plates and allowed to attach overnight. […] Cells were exposed to these compounds in Roswell Park Memorial Institute (RPMI) medium containing 10% Foetal Calf Serum (FCS) and 2 mM Glutamine at 37° C. and 5% CO2 for 48 hours. There were 3 replicates for each test item concentration.\nas §5"}, "Metabolism": {"experiment": "Metabolism", "conditions": "patients / human", "description": "It is presumed that CXR1002 will eventually reach a steady state level after a number of doses, in an analogous way to its accumulative exposure in monkeys.\nUnlike most other anti-tumour agents, PFOA is efficiently absorbed following oral exposure."}, "[1]": {"system": "pregnenolone X receptor (PXR)", "conditions": "species-specific basis; Ren (2009); cited from earlier work"}, "OV-90": {"system": "OV-90", "experiment": "ATP depletion cytotoxicity assay 48 hr", "assay_type": "cell-based, human", "method": "as §1, §2, §3, §4, §5"}},
  "note": "Several values for one entry are separate records, joined by “and”; a condition that tells them apart may be missing. Equal entries are not always repeated. Where two headings read alike, the source gives them in different places.",
  "data": [
    {"smiles": "O=C(O)C(F)(F)C(F)(F)C(F)(F)C(F)(F)C(F)(F)C(F)(F)C(F)(F)F", "note": "[CXR1002]", "values": [
      {"measurement": "IC50", "setting": "PC3; Homo sapiens, PC-3, 48 h, read-out: IC50 1-4 (independent replicates)", "value": 650, "unit": "µM"},
      {"measurement": "IC50", "setting": "PC3; Homo sapiens, PC-3, 48 h, read-out: IC50 Mean", "value": 642, "unit": "µM"},
      {"measurement": "IC50", "setting": "PC3; read-out: IC50 1-4 (independent replicates)", "value": 625, "unit": "µM"},
      {"measurement": "XBP-1 mRNA splicing", "setting": "XBP1 mRNA", "value": "varies from predominately unspliced to spliced"},
      {"measurement": "IC50", "setting": "HPAFII; Homo sapiens, HPAF-II, 48 h, read-out: IC50 1-4 (independent replicates), ATP depletion, 48 hrs, HPAFII", "value": "> 1000", "unit": "µM"},
      {"measurement": "IC50", "setting": "HPAFII; Homo sapiens, HPAF-II, 48 h, read-out: IC50 Mean, ATP depletion, 48 hrs, HPAFII", "value": "> 1000", "unit": "µM"},
      {"measurement": "IC50", "setting": "HPAFII; read-out: IC50 1-4 (independent replicates), ATP depletion, 48 hrs, HPAFII", "value": "> 1000 µM and 750 µM"},
      {"measurement": "metabolism", "setting": "Metabolism", "value": "not metabolised"},
      {"measurement": "activation of PXR", "setting": "[1]", "value": "are activated"},
      {"measurement": "IC50", "setting": "OV-90; ATP depletion, 48 hrs, read-out: IC50 1-4 (independent replicates)", "value": 670, "unit": "µM"},
      {"measurement": "IC50", "setting": "OV-90; Homo sapiens, OV-90, 48 h, ATP depletion, 48 hrs, read-out: IC50 1-4 (independent replicates)", "value": 650, "unit": "µM"},
      {"measurement": "IC50", "setting": "OV-90; Homo sapiens, OV-90, 48 h, ATP depletion, 48 hrs, read-out: IC50 Mean", "value": 657, "unit": "µM"},
      {"measurement": "IC50", "setting": "OV-90; Homo sapiens, OV-90, 48 h, Example 7, 48 hour, CXR1002 0-1 mM, U0126 fixed 10 μM where combined, read-out: IC50", "value": 714, "unit": "µM"}
    ]}
  ]
}
